Experimental findings from ChEMBL document CHEMBL3600352, “Design, synthesis and biological evaluation of isoquinoline-based derivatives as novel histone deacetylase inhibitors” (Bioorg Med Chem, 2015) are described below.

Series [1] addresses Histone deacetylase 3 (Homo sapiens, UniProt O15379). Put plainly: Inhibition of recombinant His6-tagged GST-fused human HDAC3 expressed in baculovirus infected insect High5 cells using Ac-Lys-Tyr-Lys(epsilon-acetyl)-AMC as substrate after 24 hrs.
Series [2] deals with RPMI-8226. Put plainly: Cytotoxicity against human RPMI8226 cells assessed as cell viability after 72 hrs by CCK8 assay. The format is functional, cell-based. The conditions noted are these: RPMI-8226, 72 h.
In series [3] the test system is HCT-116. Nature of the series: Cytotoxicity against human HCT116 cells assessed as cell viability after 72 hrs by CCK8 assay. The conditions noted are these: HCT-116, 72 h. The series is classed as functional, cell-based.
Series [4] deals with T1, Protein deacetylase HDAC6 (Homo sapiens, UniProt Q9UBN7).
T1 sequence (Q9UBN7 whole entry): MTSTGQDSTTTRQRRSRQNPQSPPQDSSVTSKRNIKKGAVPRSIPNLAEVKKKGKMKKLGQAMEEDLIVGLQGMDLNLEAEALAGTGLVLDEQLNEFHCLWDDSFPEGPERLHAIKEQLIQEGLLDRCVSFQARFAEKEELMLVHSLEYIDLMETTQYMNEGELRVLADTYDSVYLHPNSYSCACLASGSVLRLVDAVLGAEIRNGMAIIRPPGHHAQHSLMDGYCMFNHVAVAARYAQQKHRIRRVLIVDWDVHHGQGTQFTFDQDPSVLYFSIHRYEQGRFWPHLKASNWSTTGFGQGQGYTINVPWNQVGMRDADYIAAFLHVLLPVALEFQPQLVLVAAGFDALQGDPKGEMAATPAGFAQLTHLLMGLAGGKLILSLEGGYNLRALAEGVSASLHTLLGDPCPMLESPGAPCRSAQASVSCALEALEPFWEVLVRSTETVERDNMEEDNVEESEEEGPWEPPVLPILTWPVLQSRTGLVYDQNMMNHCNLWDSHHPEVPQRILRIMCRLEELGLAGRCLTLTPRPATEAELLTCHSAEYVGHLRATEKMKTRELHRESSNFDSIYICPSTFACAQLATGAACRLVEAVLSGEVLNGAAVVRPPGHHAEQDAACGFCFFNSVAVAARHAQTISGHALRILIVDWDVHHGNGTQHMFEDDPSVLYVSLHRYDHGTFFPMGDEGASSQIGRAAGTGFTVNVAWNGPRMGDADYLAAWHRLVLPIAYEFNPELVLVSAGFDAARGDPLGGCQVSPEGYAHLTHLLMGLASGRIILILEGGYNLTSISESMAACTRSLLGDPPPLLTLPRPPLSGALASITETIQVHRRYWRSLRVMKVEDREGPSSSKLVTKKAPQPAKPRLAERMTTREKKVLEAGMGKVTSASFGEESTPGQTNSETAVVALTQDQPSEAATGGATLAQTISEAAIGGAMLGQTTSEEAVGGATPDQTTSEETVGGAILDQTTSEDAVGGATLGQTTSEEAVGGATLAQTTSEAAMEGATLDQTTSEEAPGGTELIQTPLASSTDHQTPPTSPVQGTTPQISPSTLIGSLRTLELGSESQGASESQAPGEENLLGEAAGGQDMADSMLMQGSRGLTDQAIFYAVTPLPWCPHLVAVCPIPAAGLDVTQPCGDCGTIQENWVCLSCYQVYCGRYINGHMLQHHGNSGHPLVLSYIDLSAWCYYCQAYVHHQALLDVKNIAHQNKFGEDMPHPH
Nature of the series: Inhibition of recombinant His6-tagged GST-fused human HDAC6 expressed in baculovirus infected insect High5 cells using Boc-Lys-(epsilon-acetyl)-AMC as substrate after 3 hrs.

Series [5] concerns the target Histone deacetylase 1 (Homo sapiens, UniProt Q13547). Nature of the series: Inhibition of recombinant His6-tagged GST-fused human HDAC1 expressed in baculovirus infected insect High5 cells using Ac-Lys-Tyr-Lys(epsilon-acetyl)-AMC as substrate after 24 hrs.
The subject of series [6] is HepG2. Nature of the series: Cytotoxicity against human HepG2 cells assessed as cell viability after 72 hrs by CCK8 assay. The conditions noted are these: HepG2, 72 h. The series is classed as functional, cell-based.
Series [7] deals with T2, Histone deacetylase (Homo sapiens) (UniProt Q13547+O15379+Q9UBN7+Q92769+Q9UQL6+Q8WUI4+Q9BY41+Q96DB2+P56524+Q9UKV0+Q969S8). Nature of the series: Inhibition of HDAC in human RPMI8226 cells assessed as upregulation of acetylated histone H3 level after 24 hrs by Western blot analysis. The series is classed as cell-based. The following applies: RPMI-8226.
The target in series [8] is T3, hERG (KCNH2) (Homo sapiens, UniProt Q12809). Put plainly: Inhibition of human ERG overexpressed in CHO cells at 40 uM by Qpatch method relative to control. The series is classed as cell-based. The following applies: CHO cells overexpressing human ERG.
For series [9], the target named is T2, Histone deacetylase (Homo sapiens). Nature of the series: Inhibition of HDAC in human RPMI8226 cells assessed as upregulation of acetylated alpha-tubulin level after 24 hrs by Western blot analysis. The format is cell-based. The conditions noted are these: RPMI-8226.
The target in series [10] is Voltage-gated inwardly rectifying potassium channel KCNH2 (Homo sapiens, UniProt Q12809). Nature of the series: Inhibition of human ERG overexpressed in CHO cells by Qpatch method. The format is cell-based.
The target in series [11] is T3, hERG (KCNH2). Put plainly: Inhibition of human ERG overexpressed in CHO cells at 3 uM by Qpatch method relative to control. The series is classed as cell-based. The conditions noted are these: CHO cells overexpressing human ERG.

Sequence of Histone deacetylase 3 (O15379 whole entry, the tested form may be a part): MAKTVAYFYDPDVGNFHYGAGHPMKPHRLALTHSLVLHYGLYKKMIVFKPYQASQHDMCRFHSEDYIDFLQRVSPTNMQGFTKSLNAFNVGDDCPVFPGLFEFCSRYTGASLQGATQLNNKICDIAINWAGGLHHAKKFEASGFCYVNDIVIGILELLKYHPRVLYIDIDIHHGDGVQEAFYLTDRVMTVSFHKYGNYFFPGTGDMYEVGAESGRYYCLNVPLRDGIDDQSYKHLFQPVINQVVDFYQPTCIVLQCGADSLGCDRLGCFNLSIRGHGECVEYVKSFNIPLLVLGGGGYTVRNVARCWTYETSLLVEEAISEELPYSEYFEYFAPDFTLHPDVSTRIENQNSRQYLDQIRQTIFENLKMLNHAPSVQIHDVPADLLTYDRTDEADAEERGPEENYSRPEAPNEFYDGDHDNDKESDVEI
Sequence of Histone deacetylase 1 (Q13547 whole entry, the tested form may be a part): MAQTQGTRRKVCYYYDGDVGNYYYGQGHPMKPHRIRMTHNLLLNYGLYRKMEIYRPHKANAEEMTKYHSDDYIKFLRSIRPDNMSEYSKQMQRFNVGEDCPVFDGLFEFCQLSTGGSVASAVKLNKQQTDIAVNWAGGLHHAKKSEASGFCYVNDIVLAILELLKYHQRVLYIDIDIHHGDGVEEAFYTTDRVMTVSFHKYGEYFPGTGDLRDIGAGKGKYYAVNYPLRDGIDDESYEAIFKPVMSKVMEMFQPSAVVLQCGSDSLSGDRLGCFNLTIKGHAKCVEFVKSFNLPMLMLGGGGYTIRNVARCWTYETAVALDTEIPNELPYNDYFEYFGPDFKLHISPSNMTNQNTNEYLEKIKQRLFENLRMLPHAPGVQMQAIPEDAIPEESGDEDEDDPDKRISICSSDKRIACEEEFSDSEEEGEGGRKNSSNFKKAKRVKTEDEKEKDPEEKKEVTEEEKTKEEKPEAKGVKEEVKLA
T3 sequence (Q12809 whole entry): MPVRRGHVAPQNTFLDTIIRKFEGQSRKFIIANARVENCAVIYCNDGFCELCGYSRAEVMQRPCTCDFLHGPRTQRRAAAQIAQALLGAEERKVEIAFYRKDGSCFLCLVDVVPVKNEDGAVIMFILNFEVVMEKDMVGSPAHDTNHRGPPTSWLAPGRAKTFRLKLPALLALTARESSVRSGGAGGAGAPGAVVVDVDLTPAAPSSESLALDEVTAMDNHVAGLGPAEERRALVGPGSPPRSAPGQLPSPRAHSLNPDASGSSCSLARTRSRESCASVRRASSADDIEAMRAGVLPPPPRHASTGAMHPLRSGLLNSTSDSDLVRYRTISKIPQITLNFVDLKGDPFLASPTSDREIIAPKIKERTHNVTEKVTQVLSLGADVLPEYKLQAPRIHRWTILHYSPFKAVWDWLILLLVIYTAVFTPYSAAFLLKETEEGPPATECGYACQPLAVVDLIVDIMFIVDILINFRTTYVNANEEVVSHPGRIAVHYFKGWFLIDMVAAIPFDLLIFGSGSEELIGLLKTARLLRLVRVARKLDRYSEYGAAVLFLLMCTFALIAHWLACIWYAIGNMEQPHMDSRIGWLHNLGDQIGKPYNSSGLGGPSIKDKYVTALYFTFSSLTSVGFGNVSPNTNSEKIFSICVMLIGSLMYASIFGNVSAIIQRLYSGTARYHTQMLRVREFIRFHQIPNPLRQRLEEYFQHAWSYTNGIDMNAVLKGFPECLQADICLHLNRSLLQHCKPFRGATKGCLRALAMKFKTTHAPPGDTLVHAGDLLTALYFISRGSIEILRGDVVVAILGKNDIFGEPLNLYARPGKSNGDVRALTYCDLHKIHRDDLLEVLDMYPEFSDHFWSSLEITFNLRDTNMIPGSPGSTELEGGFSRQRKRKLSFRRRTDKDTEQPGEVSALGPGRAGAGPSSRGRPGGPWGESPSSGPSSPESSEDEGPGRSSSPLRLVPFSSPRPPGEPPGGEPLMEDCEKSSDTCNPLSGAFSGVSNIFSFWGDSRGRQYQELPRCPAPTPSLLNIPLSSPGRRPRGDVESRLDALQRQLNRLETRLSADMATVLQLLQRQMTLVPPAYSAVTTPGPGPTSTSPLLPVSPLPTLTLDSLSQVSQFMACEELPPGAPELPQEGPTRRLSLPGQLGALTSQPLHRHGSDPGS
Sequence of Voltage-gated inwardly rectifying potassium channel KCNH2 (Q12809 whole entry): as above

As to `Cc1ccc(Nc2nccc3ccc(NC(=O)CCCCCCC(=O)NO)cc23)c(Br)c1`, the IC50 in series [1] came to 17.6 nM; in [2] it was 470 nM; in series [3], 260 nM; in [4], 6.26 nM; in [5], 15.4 nM; in series [6], 8450 nM.
As to `Cc1ccc(Nc2nccc3ccc(NCc4ccc(/C=C/C(=O)NO)cc4)cc23)c(Br)c1`, the IC50 in [1] came out at 633 nM; in series [2] it was 5220 nM; in series [4] it was 304 nM; in series [5], 439 nM.
For `Cc1ccc(Nc2nccc3ccc(NC(=O)CCCCCCC(=O)NO)cc23)cc1`, the IC50 in series [1] was found to be 4 nM; in [2], 770 nM; in [4], 3.77 nM; in series [5], 4.17 nM.
The matching figures for `Cc1ccc(Nc2nccc3ccc(NCc4ccc(/C=C/C(=O)NO)cc4)cc23)cc1`: 176 nM, 2040 nM, 58.9 nM and 205 nM.
For `Cc1ccc(Nc2nccc3ccc(NC(=O)CCCCCCC(=O)NO)cc23)c(Cl)c1`, the IC50 was determined as 21.2 nM in series [1]; 520 nM in [2]; 170 nM in series [3]; 29.9 nM in series [4]; 19.5 nM in [5]; 10000 nM in [6].
As to `CCCCn1ccc2ccc(NC(=O)CCCCCCC(=O)NO)cc2c1=O`, the concentration for half-maximal inhibition (IC50) amounted to 92 nM in series [1]; 1880 nM in series [2]; 1720 nM in series [3]; 32.1 nM in series [4]; 65.8 nM in [5]; 18500 nM in series [6].
Regarding `O=C(CCCCCCC(=O)Nc1ccc2ccnc(Nc3ccc(Br)cc3F)c2c1)NO`, the IC50 in [1] came out at 16.7 nM; in series [2], 460 nM; in series [3], 190 nM; in [4], 6.83 nM; in [5], 15.5 nM; in [6], 5870 nM. In addition, the IC50 in series [10] is > 40000 nM. Also, the inhibition result in series [7] and in series [9] was “Dose-dependent effect” in each case. Further, the inhibition at 40 µM in series [8] was found to be 43.7%.
Regarding `O=C(CCCCCCC(=O)Nc1ccc2ccnc(N3CCOCC3)c2c1)NO`, the IC50 in series [1] was 40.8 nM; in series [2] it was 1330 nM; in series [3], 280 nM; in [4], 29.5 nM; in [5] it was 45.9 nM; in series [6], 14000 nM.
`O=C(CCCCCCC(=O)Nc1ccc2ccnc(Nc3ccccc3F)c2c1)NO`: the IC50 in series [1] stood at 18.9 nM; in series [2] it was 940 nM; in [4] it was 11 nM; in series [5] it was 18 nM.
Regarding `COCCCNc1nccc2ccc(NC(=O)CCCCCCC(=O)NO)cc12`, the IC50 turned out to be 14 nM in series [1], 2710 nM in series [2], 13.6 nM in series [4] and 27.9 nM in series [5].
As to `O=C(COc1ccc(C(=O)NO)cc1)Nc1ccc2ccnc(Nc3ccc4ccccc4c3)c2c1`, the IC50 in series [1] came to 276 nM; in series [2] it was 7300 nM; in [4], 545 nM; in [5], 272 nM.
Regarding `CC(C)CCn1ccc2ccc(NC(=O)CCCCCCC(=O)NO)cc2c1=O`, the IC50 in series [1] came out at 69.2 nM; in series [2], 1800 nM; in series [4], 54.2 nM; in [5], 66 nM.
Regarding `COCCN(CCOC)c1nccc2ccc(NC(=O)CCCCCCC(=O)NO)cc12`, the IC50 in series [1] came to 192 nM; in series [2], 7710 nM; in series [4] it was 148 nM; in series [5] it was 263 nM.
Consider `O=C(CCCCCCC(=O)Nc1ccc2ccnc(Nc3cccc(Cl)c3F)c2c1)NO`, for which the half-maximal inhibitory concentration (IC50) in [1] stood at 21.6 nM; in series [2], 720 nM; in [4], 7.96 nM; in series [5], 17.5 nM. For the same compound, the inhibition entry in series [7] and in [9] was “Dose-dependent effect” in each case.
In the case of `Cc1ccc(Nc2nccc3ccc(NC(=O)CCCCCCC(=O)NO)cc23)c(F)c1`, the IC50 in series [1] is 39.7 nM; in series [2] it was 2040 nM; in series [4] it was 40.9 nM; in [5], 35.4 nM.
With `CCN(CC)CCn1ccc2ccc(NC(=O)CCCCCCC(=O)NO)cc2c1=O`, the 50% inhibitory concentration (IC50) was 74.4 nM in series [1], 2160 nM in [2], 38.7 nM in [4] and 69 nM in [5].
With `Cc1ccc(Nc2nccc3ccc(NCc4ccc(/C=C/C(=O)NO)cc4)cc23)c(Cl)c1`, the IC50 was 475 nM in series [1], 2710 nM in series [2], 286 nM in series [4] and 571 nM in [5].
In the same order, the values of `Cc1ccc(Nc2nccc3ccc(NCc4ccc(C(=O)NO)cc4)cc23)cc1` are 264 nM, > 20000 nM, 352 nM and 323 nM.
In the case of `CC(C)N1CCN(c2nccc3ccc(NC(=O)CCCCCCC(=O)NO)cc23)CC1`, the IC50 in series [1] is 36 nM; in [2], 1350 nM; in series [4], 25 nM; in series [5] it was 41.6 nM.
With `COc1cc(N)c(Cl)cc1C(=O)NC1CCN(CCCOc2ccc(F)cc2)CC1OC` (stereo not drawn) [CISAPRIDE], the inhibition at 3 µM in [11] stood at 98.7%.
With `COc1ccc(Cn2ccc3ccc(NC(=O)CCCCCCC(=O)NO)cc3c2=O)c(OC)c1`, the IC50 in series [1] came out at 108 nM; in series [2], 2640 nM; in series [4], 100 nM; in [5], 98.1 nM.
Regarding `O=C(CCCCCCC(=O)Nc1ccc2ccnc(Nc3ccc4ccccc4c3)c2c1)NO`, the IC50 in series [1] was 5.42 nM; in series [2] it was 740 nM; in series [4] it was 5.15 nM; in [5] it was 5.75 nM; in series [10], > 40000 nM. In series [8], the inhibition at 40 µM amounted to 17.5%.
